Assay results: patent publication US12382954B2, “Pinocembrin dihydrochalcone and compositions thereof and their use as pesticides” (METABOLIC INSIGHTS LTD., priority 2019, dated 2025)

What was measured:
Puccinia sorghi = type: cell-based; conditions: 50 ppm
Puccinia triticina = type: cell-based; conditions: 50 ppm
Phytophthora infestans [1] = type: cell-based; conditions: 50 ppm, tomato leaf discs, % of maximal value (grade x repeats/12)
Botrytis cinerea = type: cell-based; conditions: 50 ppm
Rhizoctonia solani = type: cell-based; conditions: 50 ppm
Pythium aphanidermatum [2] = type: cell-based; conditions: 50 ppm
[3] = tested on: Pseudoperonospora cubensis; type: cell-based; conditions: 50 ppm
Fusarium oxysporum [4] = type: cell-based; conditions: 50 ppm
Sclerotinia sclerotiorum = type: cell-based; conditions: 50 ppm
[5] = tested on: Pectobacterium carotovorum; type: cell-based; conditions: 50 ppm
Pseudomonas syringae = type: cell-based; conditions: 50 ppm
Xanthomonas campestris = type: cell-based; conditions: 50 ppm
Mizus Persicae = assay: In-vitro screening matrix, Mizus Persicae; conditions: 50 ppm
Spodoptera litoralis = assay: In-vitro screening matrix, Spodoptera litoralis; conditions: 50 ppm
Fusarium oxysporum [6] = assay: In planta validation, cucumber seedlings infected with Fusarium oxysporum; type: in vivo; conditions: 3 weeks after infection, 3 independent experiments
Pythium aphanidermatum [7] = assay: In planta validation, cucumber seedlings infected with Pythium aphanidermatum (soil drench); type: in vivo; conditions: 4 days after infection, 150 ppm-500 ppm, 2 independent experiments
Phytophthora infestans [8] = type: in vivo; conditions: tomato detached leaf experiment, 500-1000 ppm, spray on leaves, 6 days after infection

O=C(CCc1ccccc1)c1c(O)cc(O)cc1O [Pinocembrin dihydrochalcone, 3-phenyl-1-(2,4,6-trihydroxyphenyl)propan-1-one]
Relative Activity value (%) (Puccinia sorghi): 0% | Relative Activity value (%) (Puccinia triticina): 19% | Relative Activity value (%) (Phytophthora infestans [1]): 100% | Relative Activity value (%) (Botrytis cinerea): 0% | Relative Activity value (%) (Rhizoctonia solani): 6% | Relative Activity value (%) (Pythium aphanidermatum [2]): 100% | Relative Activity value (%) [3]: 50% | Relative Activity value (%) (Fusarium oxysporum [4]): 9% | Relative Activity value (%) (Sclerotinia sclerotiorum): 6% | Relative Activity value (%) [5]: 12% | Relative Activity value (%) (Pseudomonas syringae): 6% | Relative Activity value (%) (Xanthomonas campestris): 50% | Relative Activity value (%) (Mizus Persicae): 0% | Relative Activity value (%) (Spodoptera litoralis): 0% | range of efficacy in preventing and controlling the Fusarium diseases (Fusarium oxysporum [6]; 100 ppm and 200 ppm): 66-100% | range of efficacy in preventing and controlling the Fusarium diseases (Fusarium oxysporum [6]; 300 ppm): 88-100% | range of efficacy in preventing and controlling the Pythium disease (Pythium aphanidermatum [7]): up to 100% | control of Phytophthora infestans (Phytophthora infestans [8]): up to 100%
